Like-named read-outs stand apart in the source and are kept apart here.
Key:
[1] = target: rat brain PKC isozyme mixture; assay: Protein Kinase C (Isozyme Mix) Assay; format: binding; details: for Ki: rat brain PKC isozyme mixture, read-out: Binding Affinity
P388 cell line = assay: P388 Murine Lymphocytic Leukemia Cell Assay; format: cell-based; details: 5 days incubation, MTT
Experimental: Cells from a P388 cell line (CellGate, Inc., Sunnyvale, Calif.) are grown in RPMI 1640 cell medium containing fetal calf serum (10%), L-glutamine, penicillin, streptomycin and are split twice weekly. All compounds are first diluted with DMSO. Later serial dilutions are done with a phosphate buffer solution (HYQ DPBS modified phosphate buffered saline). All dilutions are done in glass vials and the final DMSO concentration is always below 0.5% by volume. Final two-fold dilutions are done in a 96 well plate using cell media so that each well contains 50 μL. All compounds are assayed in quadruplicate over 12 concentrations. Cell concentration is measured using a hemacytometer and the final cell concentration is adjusted to 1×10^4 cells/mL with cell medium. The resulting solution of cells (50 μL) is then added to each well and the plates are incubated for 5 days in a 37° C., 5% CO2, humidified incubator (Sanyo CO2 incubator). MTT solution (3-[4,5-dimethylthiazol-2-yl]-2,5-diphenyltetrazolium bromide, 10 μL) is then added to each well and the plates are re-incubated under identical conditions for 2 h. To each well is then added acidified isopropanol (150 μL of i-PrOH solution containing 0.05 N HCl) and mixed thoroughly. The plates are then scanned at 595 nm and the absorbances are read (Wallac Victor 1420 Multilabel Counter). The resulting data is then analyzed to determine an ED50 value using the Prism software package (GraphPad).

PKCδ-C1B = PKCδ-C1B (Homo sapiens (Human), UniProt Q05655); assay: PKCδ-C1B Assay; format: binding
Sequence of PKCδ-C1B (Q05655 whole entry, looked up): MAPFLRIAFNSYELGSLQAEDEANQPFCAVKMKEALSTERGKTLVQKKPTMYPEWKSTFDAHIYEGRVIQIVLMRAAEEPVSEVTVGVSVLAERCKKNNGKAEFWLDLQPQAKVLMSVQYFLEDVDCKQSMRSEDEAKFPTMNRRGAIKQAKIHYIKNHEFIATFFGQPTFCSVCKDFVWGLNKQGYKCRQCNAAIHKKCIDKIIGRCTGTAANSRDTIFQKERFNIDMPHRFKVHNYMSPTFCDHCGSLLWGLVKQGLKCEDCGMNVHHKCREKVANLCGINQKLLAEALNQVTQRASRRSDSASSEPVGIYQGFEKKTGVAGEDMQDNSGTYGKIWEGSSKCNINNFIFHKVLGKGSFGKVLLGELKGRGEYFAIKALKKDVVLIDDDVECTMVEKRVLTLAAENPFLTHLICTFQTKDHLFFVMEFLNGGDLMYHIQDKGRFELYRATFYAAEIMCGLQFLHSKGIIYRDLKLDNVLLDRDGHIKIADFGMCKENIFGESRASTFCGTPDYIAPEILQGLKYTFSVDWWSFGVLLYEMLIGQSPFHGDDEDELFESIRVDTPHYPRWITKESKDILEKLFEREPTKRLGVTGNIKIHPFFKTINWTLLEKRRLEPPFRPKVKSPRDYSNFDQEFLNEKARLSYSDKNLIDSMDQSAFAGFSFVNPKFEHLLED

CCCCCCCC(=O)O[C@H]1/C(=C/C(=O)OC)C[C@H]2C[C@H](CO)OC(=O)C[C@H](O)CCO[C@H](c3ccc(-c4ccccc4)cc3)C[C@@H]3CCO[C@H](/C=C/C(C)(C)[C@]1(O)O2)O3 [Formula 19B.1] was tested, and the Ki [1] was 3.1 nM.
Work on CCCCCCCC(=O)O[C@H]1/C(=C/C(=O)OC)C[C@H]2C[C@H](CO)OC(=O)C[C@H](O)CCO[C@H](c3ccc(Br)cc3)C[C@@H]3CCO[C@H](/C=C/C(C)(C)[C@]1(O)O2)O3 [Formula 18C] yielded a Ki [1] of 1.6 nM.
With CCCCCC/C=C/c1ccc([C@@H]2C[C@@H]3CCO[C@H](/C=C/C(C)(C)[C@]4(O)O[C@@H](C/C(=C\C(=O)OC)[C@@H]4OC(=O)CCCCCCC)C[C@H](CO)OC(=O)C[C@H](O)CCO2)O3)cc1 [Formula 19B.3] the Ki [1] was 4.6 nM.
CCCCCCCC(=O)O[C@H]1/C(=C/C(=O)OC)C[C@H]2C[C@H](CO)OC(=O)C[C@H](O)CCO[C@H](c3ccc(CCCOCCOCC)cc3)C[C@@H]3CCO[C@H](/C=C/C(C)(C)[C@]1(O)O2)O3 [Formula 19B.2] was tested, and the Ki [1] was 3.8 nM.
Compound CCCCCCCC(=O)O[C@H]1/C(=C/C(=O)OC)C[C@H]2C[C@H](CO)OC(=O)C[C@H](O)CCO[C@H](c3ccccc3)C[C@@H]3CCO[C@H](/C=C/C(C)(C)[C@]1(O)O2)O3 [Formula 19B.0] has a Ki [1] of 2.3 nM.
COC(=O)/C=C1\C[C@H]2C[C@H]([C@@H](C)O)OC(=O)C[C@H](O)C[C@@H]3CCC[C@H](C[C@@H]4CCO[C@H](/C=C/C(C)(C)[C@](O)(O2)[C@H]1OC(C)=O)O4)O3 [Formula 702.2] was tested, and the “P388 Assay ED50” value (P388 cell line) was 181 nM and the Ki (PKCδ-C1B) was 232 ± 11 nM.
For CCCCCCC(=O)OC1C(=CC(=O)OC)CC2CC(C(C)O)OC(=O)CC(O)CC3CCCC(CC4CCOC(C=CC(C)(C)C1(O)O2)O4)O3 (stereo not shown) [Formula 702.3], the “P388 Assay ED50” value (P388 cell line) was 38 nM and the Ki (PKCδ-C1B; competition with tritiated phorbol 12,13-dibutyrate) was 35 nM.
With CCCC(=O)O[C@@H]1[C@@H](C)[C@@]2(O)[C@@H](C=C(CO)C[C@]3(O)C(=O)C(C)=C[C@@H]23)[C@@H]2C(C)(C)[C@]12OC(=O)CCC [Phorbol dibutyrate, phorbol 12,13-dibutyrate, reference compound] the Kd ([1]; under identical conditions to the PKC isozyme mix assay, read-out: Kd of [H^3]-PDBu) was 1.55 nM.

— US8497385B2, “Bryostatin analogues, synthetic methods and uses” (The Board of Trustees of the Leland Stanford Junior …, priority 2007, dated 2013)
